Measured values published in ChEMBL document CHEMBL4145553, “Design, synthesis, and biological evaluation of novel amide and hydrazide based thioether analogs targeting Histone deacteylase (HDAC) enzymes” (Eur J Med Chem, 2018).

How the values were obtained:
MDA-MB-435 = assay: Growth inhibition of human MDA-MB-435 cells assessed as cell growth at 10^-7 M incubated for 48 hrs by sulforhodamine B assay relative to control; assay type: functional; conditions: MDA-MB-435, 48 h, read-out: Activity
OVCAR-4 [1] = assay: Growth inhibition of human OVCAR4 cells assessed as cell growth at 10^-6 M incubated for 48 hrs by sulforhodamine B assay relative to control; assay type: functional; conditions: OVCAR-4, 48 h, read-out: Activity
SF-539 [2] = assay: Growth inhibition of human SF539 cells assessed as cell growth at 10^-5 M incubated for 48 hrs by sulforhodamine B assay relative to control; assay type: functional; conditions: SF-539, 48 h, read-out: Activity
NCI/ADR-RES [3] = assay: Growth inhibition of human NCI/ADR-RES cells assessed as cell growth at 10^-5 M incubated for 48 hrs by sulforhodamine B assay relative to control; assay type: functional; conditions: read-out: Activity
SK-MEL-5 = assay: Growth inhibition of human SK-MEL-5 cells incubated for 48 hrs by sulforhodamine B assay; assay type: functional; conditions: SK-MEL-5, 48 h
HL-60(TB) = assay: Growth inhibition of human HL-60(TB) cells at 10 uM incubated for 48 hrs by sulforhodamine B assay relative to control; assay type: functional; conditions: HL-60, 48 h, values are per cent of control
HOP-92 = assay: Growth inhibition of human HOP92 cells at 10 uM incubated for 48 hrs by sulforhodamine B assay relative to control; assay type: functional; conditions: HOP-92, 48 h, values are per cent of control
NCI-H322M = assay: Growth inhibition of human NCI-H322M cells at 10 uM incubated for 48 hrs by sulforhodamine B assay relative to control; assay type: functional; conditions: values are per cent of control
NCI-H460 = assay: Growth inhibition of human NCI-H460 cells at 10 uM incubated for 48 hrs by sulforhodamine B assay relative to control; assay type: functional; conditions: NCI-H460, 48 h, values are per cent of control
RXF 393 = assay: Growth inhibition of human RXF393 cells at 10 uM incubated for 48 hrs by sulforhodamine B assay relative to control; assay type: functional; conditions: RXF 393, 48 h, values are per cent of control
ACHN = assay: Growth inhibition of human ACHN cells at 10 uM incubated for 48 hrs by sulforhodamine B assay relative to control; assay type: functional; conditions: values are per cent of control
SK-OV-3 = assay: Growth inhibition of human SKOV3 cells at 10 uM incubated for 48 hrs by sulforhodamine B assay relative to control; assay type: functional; conditions: SK-OV-3, 48 h, values are per cent of control
NCI/ADR-RES [4] = assay: Growth inhibition of human NCI/ADR-RES cells at 10 uM incubated for 48 hrs by sulforhodamine B assay relative to control; assay type: functional; conditions: values are per cent of control
UO-31 = assay: Growth inhibition of human UO31 cells at 10 uM incubated for 48 hrs by sulforhodamine B assay relative to control; assay type: functional; conditions: UO-31, 48 h, values are per cent of control
MDA-MB-231 = assay: Growth inhibition of human MDA-MB-231 cells at 10 uM incubated for 48 hrs by sulforhodamine B assay relative to control; assay type: functional; conditions: MDA-MB-231, 48 h, values are per cent of control
BT-549 = assay: Growth inhibition of human BT549 cells at 10 uM incubated for 48 hrs by sulforhodamine B assay relative to control; assay type: functional; conditions: BT-549, 48 h, values are per cent of control
M14 = assay: Growth of human M14 cells at 10 uM incubated for 48 hrs by sulforhodamine B assay relative to control; conditions: M14, 48 h
U-251 = assay: Growth of human U251 cells at 10 uM incubated for 48 hrs by sulforhodamine B assay relative to control; conditions: U-251, 48 h
KM12 = assay: Growth of human KM12 cells at 10 uM incubated for 48 hrs by sulforhodamine B assay relative to control; conditions: KM12, 48 h
SF-539 [5] = assay: Growth of human SF539 cells at 10 uM incubated for 48 hrs by sulforhodamine B assay relative to control; conditions: SF-539, 48 h
SF-295 = assay: Growth of human SF295 cells at 10 uM incubated for 48 hrs by sulforhodamine B assay relative to control; conditions: SF-295, 48 h
HT-29 = assay: Growth of human HT-29 cells at 10 uM incubated for 48 hrs by sulforhodamine B assay relative to control; conditions: HT-29, 48 h
HCT-15 = assay: Growth of human HCT15 cells at 10 uM incubated for 48 hrs by sulforhodamine B assay relative to control; conditions: HCT-15, 48 h
MOLT-4 = assay: Growth of human MOLT4 cells at 10 uM incubated for 48 hrs by sulforhodamine B assay relative to control; conditions: MOLT-4, 48 h
OVCAR-4 [6] = assay: Growth of human OVCAR4 cells at 10 uM incubated for 48 hrs by sulforhodamine B assay relative to control; conditions: OVCAR-4, 48 h
HCT-116 = assay: Growth of human HCT116 cells at 10 uM incubated for 48 hrs by sulforhodamine B assay relative to control; conditions: HCT-116, 48 h
LOX IMVI = assay: Growth of human LOXIMVI cells at 10 uM incubated for 48 hrs by sulforhodamine B assay relative to control
COLO 205 = assay: Growth of human COLO205 cells at 10 uM incubated for 48 hrs by sulforhodamine B assay relative to control; conditions: COLO 205, 48 h
SK-MEL-2 = assay: Growth of human SK-MEL-2 cells at 10 uM incubated for 48 hrs by sulforhodamine B assay relative to control; conditions: SK-MEL-2, 48 h
Malme-3M = assay: Growth of human MALME-3M cells at 10 uM incubated for 48 hrs by sulforhodamine B assay relative to control
CCRF-CEM = assay: Growth of human CCRF-CEM cells at 10 uM incubated for 48 hrs by sulforhodamine B assay relative to control
A549 = assay: Growth of human A549/ATCC cells at 10 uM incubated for 48 hrs by sulforhodamine B assay relative to control; conditions: A549, 48 h
[7] = read-out: LC50 (the source's name)
[8] = read-out: pLC50 (the source's name) (converted)

| SMILES | growth at 0.1 µM (MDA-MB-435) [%] | growth at 1 µM (OVCAR-4 [1]) [%] | growth at 10 µM (SF-539 [2]) [%] | growth at 10 µM (NCI/ADR-RES [3]) [%] | GI50 (SK-MEL-5; read-out: GI50) [µM] | CC50 (SK-MEL-5; [7]) [µM] | TGI (SK-MEL-5; read-out: TGI) [µM] | GI50 (SK-MEL-5; read-out: pGI50 (converted)) [µM] | CC50 (SK-MEL-5; [8]) [µM] | TGI (SK-MEL-5; read-out: pTGI (converted)) [µM] | growth, % of control at 10 µM (HL-60(TB)) [%] | growth, % of control at 10 µM (HOP-92) [%] | growth, % of control at 10 µM (NCI-H322M) [%] | growth, % of control at 10 µM (NCI-H460) [%] | growth, % of control at 10 µM (RXF 393) [%] | growth, % of control at 10 µM (ACHN) [%] | growth, % of control at 10 µM (SK-OV-3) [%] | growth, % of control at 10 µM (NCI/ADR-RES [4]) [%] | growth, % of control at 10 µM (UO-31) [%] | growth, % of control at 10 µM (MDA-MB-231) [%] | further results |
| --- | --- | --- | --- | --- | --- | --- | --- | --- | --- | --- | --- | --- | --- | --- | --- | --- | --- | --- | --- | --- | --- |
| CCS/C(Nc1ccccc1)=C(\C#N)C(=O)Nc1ccc(OC)cc1 | 91 | 88 | -41 | 18 | 2.2 | 68.2 | 8.19 | 2.19 | 67.6 | 8.13 | -15.6 | 44.5 | 51.6 | 10.1 | 39.5 | 51.9 | 22.4 | -0.67 | 50 | 44.5 | growth, % of control at 10 µM (BT-549): 40.5%; growth, % of control at 10 µM (M14): 15.2%; growth, % of control at 10 µM (U-251): 16.6%; growth, % of control at 10 µM (KM12): 31%; growth, % of control at 10 µM (SF-539 [5]): 29.1%; growth, % of control at 10 µM (SF-295): 32.6%; growth, % of control at 10 µM (HT-29): 6.46%; growth, % of control at 10 µM (HCT-15): 16.9%; growth, % of control at 10 µM (MOLT-4): 10.1%; growth, % of control at 10 µM (OVCAR-4 [6]): 66.7%; growth, % of control at 10 µM (HCT-116): 14.3%; growth, % of control at 10 µM (LOX IMVI): 36.6%; growth, % of control at 10 µM (COLO 205): 17.5%; growth, % of control at 10 µM (SK-MEL-2): -0.34%; growth, % of control at 10 µM (Malme-3M): 55.5%; growth, % of control at 10 µM (CCRF-CEM): 8.29%; growth, % of control at 10 µM (A549): 34.6% |
| CCS/C(Nc1ccccc1)=C(\C#N)C(=O)N/N=C\c1ccc(Cl)cc1Cl | 86 | 86 | 3 | 13 | 2.28 | > 100 | 8.54 | 2.29 | > 100 | 8.51 | -31.4 | 29.2 | 70.9 | 8.05 | 2.63 | 38.2 | 15.5 | 10.8 | 41.9 | 39 | growth, % of control at 10 µM (BT-549): 45.4%; growth, % of control at 10 µM (M14): 21%; growth, % of control at 10 µM (U-251): 19.1%; growth, % of control at 10 µM (KM12): 28%; growth, % of control at 10 µM (SF-539 [5]): 4.25%; growth, % of control at 10 µM (SF-295): 17%; growth, % of control at 10 µM (HT-29): 9.53%; growth, % of control at 10 µM (HCT-15): 19.9%; growth, % of control at 10 µM (MOLT-4): 18.3%; growth, % of control at 10 µM (OVCAR-4 [6]): 56.5%; growth, % of control at 10 µM (HCT-116): 17.5%; growth, % of control at 10 µM (LOX IMVI): 34.4%; growth, % of control at 10 µM (COLO 205): 28.4%; growth, % of control at 10 µM (SK-MEL-2): 28.3%; growth, % of control at 10 µM (Malme-3M): 38.1%; growth, % of control at 10 µM (CCRF-CEM): 9.86%; growth, % of control at 10 µM (A549): 38.3% |
